“Also recorded” adds a separate entry of the source.
Experiments:
Assay type in all cases: cell-based
[1] = Cytotoxicity of lipophenols on ARPE-19 cells (MTT); conditions: human, ARPE-19 cells (retinal pigment epithelium), tested 0-160 μM, read-out: CC50 (cytotoxic concentration 50)
Experimental: (§1) Cell viability was determined by MTT colorimetric assay. Cells were incubated for 2 h with MTT reagent (0.5 mg/mL). During this incubation time, dehydrogenases of living cells reduced MTT to insoluble purple formazan, which was then dissolved in DMSO. The absorbance at 570 nm and 655 nm of individual wells was measured using a microplate reader (BioRad 550). The percentage of viable cells was calculated as [(OD570 sample−OD655 sample)/(OD570 control−OD655 control)]×100%.
ARPE-19 cells were plated into 96-well plates (4×10^4 cells/well) and cultured for 24 h to reach confluence before lipophenol treatment. […] Control cells were incubated with DMSO (0.2%). The viability of the cells was determined using a MTT colorimetric assay. All samples are expressed as percentage of viability compared to non-treated control cells (normalized at 100% survival).
Results on the measurement of lipophenol toxicity will be discussed in % cell survival at a given lipophenol concentration compared to untreated cells. […] Any concentration of lipophenol resulting in cell survival of less than 5% (zero survival) will be considered a highly toxic concentration.

[2] = test system: ARPE-19 cells; assay: Protection of lipophenols against ROS production (DCFDA probe, H2O2); conditions: 80 μM lipophenol, H2O2 600 μM
Experimental: (§2) ARPE-19 cells (cells from the retinal pigment epithelium) were obtained from ATCC, and were grown following the instructions in Dulbecco's Modified Eagle's Medium (DMEM)/Ham F12 (GIBCO) containing 10% v/v fetal bovine serum (FBS) and 1% v/v penicillin/streptomycin under a humidified air (95%)/CO2 (5%) atmosphere at 37° C. For experimental cell seeding and sub-culturing, cells were dissociated with 0.25% trypsin-EDTA, re-suspended in the culture medium and then plated at 1-3×10^5 cells/mL.
Reactive oxygen species (ROS) were measured in ARPE-19 cells with the probe DCFDA. The cell permeant reagent DCFDA is deacetylated by cellular esterases to […], which can be oxidized by ROS into the fluorophore 2′,7′-dichlorofluorescein (DCF). ARPE-19 cells were plated into black, opaque bottom 96-well plates (4×10^4 cells/well) and cultured for 24 h to reach confluence before drug treatment. The cell cultures were incubated with 2 μM of DCFDA for 45 min in DMEM/F12 medium without phenol red+1% FBS. The cells were rinsed and incubated with medium containing lipophenols at different concentrations (0-80 μM) for 1 h. Then H2O2 was added to a final concentration of 600 μM for 4 h, followed by the measurement of DCF production by fluorescence spectroscopy with excitation wavelength at 485 nm and emission wavelength at 535 nm. Control cells were incubated with DMSO (0.2%)±DCFDA±H2O2. All samples are expressed as percentage of ROS production compared to non-oxidized control cells (normalized at 100% of ROS production).
The lowest percentages of increase will therefore be representative of the most protective derivatives.

[3] = test system: ARPE-19 cells; assay: Protection of lipophenols against all-trans-retinal toxicity (anti-carbonyl stress activity, MTT); conditions: trans-retinal 15 μM
Experimental: as §2, §1
ARPE-19 cells were plated into 96-well plates (4×10^4 cells/well) and cultured for 24 h to reach confluence before lipophenol treatment. The cell cultures were treated with serum free medium containing lipophenols at different concentrations (0-80 μM) for 1 h. Then all-trans-retinal was added to a final concentration of 15 μM for 4 h, before rinsing with medium. Control cells were incubated with DMSO (0.2%)±all-trans-retinal. The cell viability was determined 16-20 h later using a MTT colorimetric assay. All samples are expressed as percentage of viability compared to non-treated and exposed to all-trans-retinal control cells. Non-treated and non-exposed to all-trans-retinal control cells are normalized at 100% survival.
The results on the measurement of anti-carbonyl stress activity will be discussed in % cell survival gain compared to cells stressed by trans-retinal (at 15 μM) and not treated with lipophenols. Any survival gain greater than +5% will be considered as a proven anti-carbonyl stress activity.

[4] = test system: ARPE-19 cells; assay: Protection of lipophenols against photoactivated A2E toxicity (MTT); conditions: from 40 μM lipophenol (plateau), A2E 20 μM, blue light
Experimental: as §2, §1
ARPE-19 cells were plated into 96-well plates (4×10^4 cells/well) and cultured for 24 h to reach confluence before lipophenol treatment. The cell cultures were treated with serum free DMEM/F12 medium without phenol red containing lipophenols at different concentrations (0-80 μM) for 1 h. Then A2E was added to a final concentration of 20 μM for 6 h, before rinsing with medium. Control cells were incubated with DMSO (0.2%)+A2E. Cells were exposed to intense blue light (4600 LUX) for 30 min to induce phototoxicity of A2E and incubated at 37° C. The cell viability was determined 16-20 h later using a MTT colorimetric assay. All samples are expressed as percentage of viability compared to non-treated and exposed to A2E control cells. Non-treated and non-exposed to A2E control cells are normalized at 100% survival.
Photoactivation of A2E leads to its oxidation and can generate cytotoxic derivatives, in particular carbonyl derivatives responsible for carbonyl stress. Results on lipophenol protection against photoactivated A2E toxicity will be discussed in % cell survival gain compared to cells stressed by A2E and not treated by lipophenols. This additional evaluation was not performed for all synthesized lipophenolic derivatives but only a selection of them to discuss the results obtained.

Structure (SMILES): CCCCC/C=C\C/C=C\CCCCCCCC(=O)O[C@H]1Cc2c(O)cc(O)cc2O[C@@H]1c1ccc(O)c(O)c1 [C-3LA, (9Z,12Z)-(2R,3S)-2-(3,4-dihydroxyphenyl)-5,7-dihydroxy-chroman-3-yl octadeca-9,12-dienoate]
- CC50 at 24 h [1]: < 160 µM
- gain of % of ROS production compared to non-stressed cells [2]: +24%
- cell survival gain (anti-carbonyl stress activity) ([3]; 80 μM lipophenol, compared to stressed untreated cells): +11%

Structure (SMILES): O=c1c(O)c(-c2ccc(O)c(O)c2)oc2cc(O)cc(O)c12 [quercetin, reference compound]
- cell survival gain against photoactivated A2E [4]: +36%
- CC50 at 24 h [1]: ~120 µM
- anti-carbonyl stress activity (in words) ([3]; up to 80 μM lipophenol): did not show anti-carbonyl stress potency; also recorded: no cellular protection
